{
  "source": "patent US20030130177A1",
  "about": "“Use of amylin agonists to modulate triglycerides” (priority 2002, published 2003)",
  "key": {"[1]": {"tested_on": "subjects with type 2 diabetes using insulin", "test": "Single-dose crossover study of pramlintide injection timing relative to a standardized breakfast, type 2 diabetes using insulin (Example 2)", "assay_type": "in vivo, human", "conditions": "type 2 patients treated with lispro insulin, pramlintide 120 μg SC, -15 to +30 min relative to meal", "excerpt": "(§1) In this example, a randomized, single-blind, placebo-controlled, five-way crossover study is designed to examine the effect of the timing of pramlintide injection relative to meal ingestion on postprandial plasma glucose profiles and triglycerides in subjects with type 1 diabetes and subjects with type 2 diabetes using insulin. Three study groups are defined by diabetes type and mealtime insulin used in their treatment regimen. On 5 study days, subjects receive a single dose of one of five treatments (A, B, C, D, or E) in random order:\n(§2) Each treatment (pramlintide or placebo) is administered subcutaneously (SC) within specified times relative to a standardized breakfast after an overnight fast. Subjects are randomly assigned to one of four treatment sequences according to a randomization schedule generated for each study group.\nSubjects with type 1 diabetes received pramlintide 60 μg or placebo (equivalent volume). Subjects with type 2 diabetes using insulin receive pramlintide 120 μg or placebo (equivalent volume). Subjects maintain their usual insulin regimen during the study; if necessary, insulin dose adjustments are made in consultation with study personnel to facilitate achievement of fasting fingerstick glucose values in the range of ≧80 mg/dL and ≦250 mg/dL while avoiding hypoglycemia. […]"}, "[2]": {"tested_on": "patients with type-1 diabetes", "conditions": "mealtime s.c. injections in addition to mealtime insulin, cited from earlier work"}, "[3]": {"tested_on": "patients with type-1 diabetes", "test": "Standardized mixed meal test after 4 weeks pramlintide TID added to CSII (Example 1)", "assay_type": "in vivo, human", "excerpt": "This Study Assesses the Effect of the Amylin Agonist Pramlintide on Post-Prandial Plasma Glucose and Triglyceride Excursions in Patients with Type-1 Diabetes Intensively Treated with Continuous Subcutaneous Insulin Infusion (CSII).\nAll 23 patients in this study are ≧16 years of age, have type-I diabetes for ≧1 year and have been intensively treated (CSII, basal/bolus regimen) for at least 6 months. Patients are using either lispro (n=21) or regular (n=2) insulin, have not changed their daily insulin dose by more than ±10% for 2 months prior to the study, and have been free from severe hypo- and hyperglycemic symptoms for at least 4 weeks prior to the study. Exclusion criteria include a clinically significant history or presence of heart disease, uncontrolled hypertension (blood pressure ≧160/90 mm Hg), gastrointestinal, hepatic, renal, or central nervous system disorders, acute illness, a history of drug or alcohol abuse, or treatment with drugs known to affect gastrointestinal motility or glucose metabolism.\nThe study consists of 3 time periods (baseline, 4 weeks on-therapy, 2 weeks off-therapy). At the end of each time period (weeks 0, 4, 6), patients are evaluated at the clinical research center (CRC). Each evaluation includes a standardized meal test.\nThe first evaluation (baseline) is conducted when patients are solely treated with their usual CSII regimen. After the baseline evaluation, patients are randomized to self-administer either placebo (n=6) or pramlintide (n=17) TID with major meals, in addition to their existing CSII therapy, for 4 weeks. The placebo group is included to provide data that could be used to determine adequate power analyses when planning future studies and not for the purpose of placebo comparisons. […]\nOn each of the 3 CRC visits, patients undergo a standardized mixed meal test the morning after an overnight fast. […] Blood samples are processed in accordance with standard clinical practice using a reference lab and commercially available products (e.g., quantitative enzymatic in vitro assay for Triglycerides GPO-PAP, Roche Diagnostics). […]"}, "[4]": {"tested_on": "subjects with type 1 diabetes", "test": "Single-dose crossover study of pramlintide injection timing relative to a standardized breakfast, type 1 diabetes (Example 2)", "assay_type": "in vivo, human", "conditions": "pramlintide 60 μg SC, -15 to +30 min relative to meal", "excerpt": "as §1, §2\nSubjects with type 1 diabetes received pramlintide 60 μg or placebo (equivalent volume). Subjects with type 2 diabetes using insulin receive pramlintide 120 μg or placebo (equivalent volume). Subjects maintain their usual insulin regimen during the study; if necessary, insulin dose adjustments are made in consultation with study personnel to facilitate achievement of fasting fingerstick glucose values in the range of ≧80 mg/dL and ≦250 mg/dL while avoiding hypoglycemia. The timing of the short-acting insulin dose relative to the standardized breakfast is based on recommendations in the respective package inserts for the insulin (0 min for insulin lispro and −30 min for regular insulin).\nThe study population consists of three study groups, defined by diabetes type and type of mealtime insulin used in their treatment regimen. Study Group 1: Subjects with type 1 diabetes using insulin lispro. Study Group 2: Subjects with type 1 diabetes using regular insulin. Study Group 3: Subjects with type 2 diabetes using insulin lispro. Fifty-nine subjects (21 type 1 subjects using insulin lispro; 19 type 1 subjects using regular insulin; and 19 type 2 subjects using insulin lispro) are enrolled in this study."}},
  "data": [
    {"smiles": "CC[C@H](C)[C@H](NC(=O)[C@@H]1CCCN1C(=O)CNC(=O)[C@H](Cc1ccccc1)NC(=O)[C@H](CC(N)=O)NC(=O)[C@H](CC(N)=O)NC(=O)[C@H](CO)NC(=O)[C@H](CO)NC(=O)[C@H](Cc1c[nH]cn1)NC(=O)[C@@H](NC(=O)[C@H](CC(C)C)NC(=O)[C@H](Cc1ccccc1)NC(=O)[C@H](CC(N)=O)NC(=O)[C@H](C)NC(=O)[C@H](CC(C)C)NC(=O)[C@H](CCCNC(=N)N)NC(=O)[C@H](CCC(N)=O)NC(=O)[C@@H](NC(=O)[C@H](C)NC(=O)[C@@H]1CSSC[C@H](NC(=O)[C@@H](N)CCCCN)C(=O)N[C@@H](CC(N)=O)C(=O)N[C@@H]([C@@H](C)O)C(=O)N[C@@H](C)C(=O)N[C@@H]([C@@H](C)O)C(=O)N1)[C@@H](C)O)C(C)C)C(=O)N[C@@H](CC(C)C)C(=O)N1CCC[C@H]1C(=O)N1CCC[C@H]1C(=O)N[C@H](C(=O)N[C@@H](CC(N)=O)C(=O)N[C@H](C(=O)NCC(=O)N[C@@H](CO)C(=O)N[C@@H](CC(N)=O)C(=O)N[C@H](C(=O)N[C@@H](Cc1ccc(O)cc1)C(N)=O)[C@@H](C)O)C(C)C)[C@@H](C)O", "note": "[pramlintide, ^25, 28, 29Pro-h-amylin]", "values": [
      {"measurement": "postprandial glucose excursions", "setting": "[1]", "result": "markedly improves"},
      {"measurement": "postprandial triglyceride concentrations", "setting": "[1]; FIG. 4", "result": "markedly improves"},
      {"measurement": "rate of gastric emptying", "setting": "[2]; Kong et al. 1998", "result": "slows"},
      {"measurement": "mealtime glucagon secretion", "setting": "[2]; Nyholm et al. 1999, Fineman et al. 2002", "result": "suppresses"},
      {"measurement": "post-prandial glucose excursions", "setting": "[2]; Nyholm et al. 1999, Thompson et al. 1997", "result": "improves"},
      {"measurement": "post-prandial triglyceride excursions, mean incremental AUC", "setting": "[3]; end of 4-week pramlintide treatment period, s.c. 15 min prior to meal, plus CSII, baseline period 65.7±87.6, p<0.05", "result": "16.7 ± 56.8", "unit": "mg·min/dL"},
      {"measurement": "post-prandial glucose response to a mixed meal", "setting": "[3]; pramlintide added to insulin, type-1 diabetic patients", "result": "reduces"},
      {"measurement": "post-prandial triglyceride excursions, mean incremental AUC", "setting": "[3]; week 6, 2 weeks after return to pre-treatment therapy (CSII only), off-therapy", "result": "56.2 ± 87.3", "unit": "mg·min/dL"},
      {"measurement": "postprandial glucose excursions", "setting": "[4]; type 1 patients treated with lispro insulin", "result": "markedly improves"},
      {"measurement": "postprandial triglyceride concentrations", "setting": "[4]; type 1 patients treated with lispro insulin, FIG. 2", "result": "markedly improves"},
      {"measurement": "postprandial glucose excursions", "setting": "[4]; type 1 patients treated with regular insulin", "result": "markedly improves"},
      {"measurement": "postprandial triglyceride concentrations", "setting": "[4]; type 1 patients treated with regular insulin, FIG. 3", "result": "markedly improves"}
    ]}
  ]
}
